Numbering of substitutions follows the chain as printed. Where two headings read alike, the source gives them in different places.
What was measured:
ADIFAB = target: T1, ADIFAB (Rattus norvegicus, UniProt P02693); experiment: Specificity of ADIFAB: effect of potential competitor molecules on ADIFAB fluorescence and on oleic acid binding; conditions: up to maximum concentrations: lysolecithin 100mM, sphingosine 100mM, bilirubin 50mM, leukotriene C4 32mM, 5-HETE 10mM, prostaglandin D2 5mM; from ethanol 0.1% by volume
T1 construct: acrylodan covalently attached at Lys27 (chemical label, no substitution)
T1 sequence (P02693 1-132): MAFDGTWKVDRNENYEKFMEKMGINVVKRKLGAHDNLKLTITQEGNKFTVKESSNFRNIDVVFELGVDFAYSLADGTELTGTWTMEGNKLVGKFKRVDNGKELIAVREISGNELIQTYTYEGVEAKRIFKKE
Procedure: ADIFAB is highly specific for long chain FA. […] The interaction between ADIFAB and a variety of molecules that are either formed in association with FA or coexist with FA in plasma and might therefore compete with FA for binding to ADI FAB were examined. The following molecules were investigated up to the maximum concentrations indicated in parenthesis; lysolecithin (100mM), sphingosine (1 00mM), bilirubin (50mM), leukotriene C4 (32mM), (5S)-5- Hydroxy-6,8, 11,14-eicasatetaenoic acid (5-HETE) (10mM), and prostaglandin D2 (5mM). […] (Since these molecules are water insoluble they were added to ADIFAB from ethanol, at 0.1% by volume, which itself causes an Ro increase by about 12% but has no effect on the Kd for oleate binding. )

[1] = target: ADIFAB (Acrylodan derivatized native rat I-FABP, Lys27) (Rattus norvegicus, UniProt P02693); experiment: biochemical; assay type: binding; conditions: for Kd relative to oleate (fold greater than oleate): normalized to oleate
Procedure: In most of the studies FFA was added to ADIFAB, in a buffer (A) consisting of 10 Mm HEPES, 150 Mm NaCI, 5 mM KCI, and 1 mM NaHPO4 at pH 7.4, as the sodium salt of the fatty acid. […] FA bind to most surfaces and values of the total FA concentration ([FAT]) were corrected for FA binding to cuvette and container walls. This binding was determined using trace amounts of […] labeled FA and, separately, ADIFAB florescence to determine the degree of FA loss upon transfer from one container to another. […] To minimize FA binding to surfaces, the monomer concentrations of stock solutions of the Na salts were maintained at pH >9.0 in water, and were warmed to >37° C. just prior to use. The polyunsaturated forms of the FA are subject to oxidation and it was observed that dissociation constants for binding to ADIFAB (Kd) were considerably greater for the oxidized FA. Care was taken to reduce the exposure of the FA salts to oxygen (all handling was carried out under Argon) and to store them at -20° C.
The concentrations of FA in the aqueous phase (FFA) and FA bound to ADIFAB ([FAb ]) were determined from the ratio of fluorescence emission intensities at 432 and 505 nm (R). The values FFA and [FAb ]were related to the ratio of intensities essentially by the method of Grynkiewicz et. al. (Grynkiewicz, G., Poenie, M., & Tsien, R. Y. (1985) J. Biol. Chem. 260, 3440-3450), according to which:
[FAb ]=[ADIFABtotal ]Q(fr)/(1-fr+FRQ) FR
are the ADIFAB intensities with zero and saturating concentrations of FFA, Ro is the intensity ratio in the absence of FFA and Rmax is the value when ADIFAB is saturated.
Because of the limiting solubility of long chain FA in aqueous solution Rmax and Q cannot. in general, be determined directly. To determine Rmax and Q, ADIFAB was titrated with lauric acid (12:0) whose high CMC allowed maximum R values (~10-11) to be measured that were considerably greater than with longer chain FA. From this titration a linear correlation was found between Q and R. Using Q, R pairs predicted by this relationship, a two parameter (Kd and Rmax) least squares analysis of each FA was done using the equation for equilibrium binding;
1/[FAb ]=(Kd/[ADIFAB])/FFA+1/[ADIFAB] (3)
Optimal Q and Rmax values obtained in this analysis were in the range 17-22 and 10 and 13, respectively, with average values of 19.5 and 11.5. Final Kd values for each FA were then determined by least squares analysis of equation (3) with Q and Rmax fixed at 19.5 and 11.5, respectively.
Fluorescence measurements to monitor Acrylodan fluorescence in various solvents, to monitor adduct formation, and to obtain complete spectra were carried out using an SLM 8000C fluorometer. Measurements of the 505/432 intensity ratios (R values) used to monitor the FFA titrations of ADIFAB were done with either the SLM 8000C or a Perkin-Elmer MPF-2A fluorometer.
ADIFAB dose response to FFA and FFA aggregate formation was measured. The ratio of fluorescent intensities at emission wavelengths of 505/432 nm were measured as a function of added Na salts of several FFA. Resulting data are depicted graphically in FIGS. 6A, 6B and 6C. Conditions were similar to those used in FIG. 3 except that 100mM EGTA was used in obtaining the data depicted in FIGS. 6A and 6B, while the data depicted in FIG. 6C was obtained using 1 mM CaCl2. Measured R values were used to determine FFA and [FFAb]using equations (1) and (2). The solid curves through the data of FIGS. 6A and 6C represent best fits of equation (3) obtained using a non-linear least squares algorithm. Aggregate formation was detected by measuring 90° light scattering from FFA in the buffer of FIG. 3 containing no added calcium and titrated with the Na salts of the FFA as described above, see FIG. 6B. The smoothed curves through the data, intended to guide-the-eye, indicate that aggregate formation, as detected by a sharp increase in light scattering, is approximately coincident with the maximum R value observed in the experiment related to FIG. 6A. […]

[2] = Fluorescence response of fluorescent-FABP probes to fatty acid binding; assay type: biochemical
From the text: Principles and exemplary methods for constructing probes as described and defined herein and methods for determining FFA levels are described in detail below. Using these principles fourteen different fluorescent-FABP derivatives have been constructed. This has been done using 3 different native FABPs (rat intestine (I-FABP), human adipocyte (A-FABP), and human heart (H-FABP)) plus 4 site-specific mutants of two of these (I-FABP, (Thr83Cys83, Thr81Cys81, Lys27Cys27 and H-FABP, Thr27Lys27), and these proteins have been derivatized with 4 different fluorophores (acrylodan, danzyl aziridine, 4-[N-[(2-iodoacetoxy)ethyl]-N-methylamino]-7-nitrobenz-2-oxa1,3-diazole ester (IANBDE), 4-[N-[(2-iodoacetoxy)ethyl]-N-methylamino]-7-nitrobenz-2-oxa-1,3-diazole these derivatives can serve as FFA probes, to some degree. To date, however, ADIFAB remains the one that has optimal properties for current applications. Obviously, by occupying, partially, the binding site with a fluorophore, FA must compete for its site and therefore the FA binding constant for the FABP may be altered from the native protein. This is indeed the case for ADIFAB for which the Kd is about 10 fold greater than for the native protein. So long as FA can bind, however, the derivatized molecule can still function as a FFA probe and so long as the probe's dynamic range is sufficient (as it is for ADIFAB, IANBDE and IANBDA) then FFA levels over a wide range, including those that are physiologic, can be measured.
The Cys27 mutant of I-FABP (Lys27 to Cys27) with acrylodan, IANBDE and IANBDA have also been labeled using the technique described. […] This is the behavior predicted from the construction principles set forth herein, and reflects the shorter tethering arm to Cys27 as compared to Lys27 which prevents the deeper insertion into the binding site that is observed in the Lys27 derivative. […] Thus, those skilled in the art can with considerable confidence predict whether protein modifications and/or choice of label will result in a FFA responsive probe.
Site-directed mutagenesis was used to introduce a cysteine residue at positions 82 or 84, in place of the threonine residues that are normally at this position. Mutagenesis was carried out by annealing a synthetic prirner with a single mismatched base to the above derived expression vector. The primer was extended and ligated in vitro, and the resulting heteroduplex was used to transfect the host strain. The transfected host was screened for the mutated DNA by hybridization with the mutating oligonucleotide. Mutated plasmid DNA was isolated, retransformed into the host strain, and its structure confirmed by sequencing the recombinant DNA in regions defined by probes flanking the mutated region. This modified protein was expressed in the same system and purified by the same methods as for the native protein. Typical yields of purified protein were approximately 50 mg/liter cell culture. The mutated I-FABP protein was fluorescently derivatized by inserting a fluorescent group (which reacts specifically with free SH groups) at the newly created cysteine residue. The cysteine residue was inserted at positions 82 (replacing a threonine residue) and/or at residue 84 (also a threonine residue) since both these positions face outward from the FFA binding pocket but are in close proximity to the tryptophan at position 83 (about 3.5Å lateral separation along the b strand and about 10Å vertical separation between the centers of the tryptophan and fluorescent residues). […] Thus, either the direct emission of the fluorescent group and/or the rate of resonance energy transfer between Trp83 and the fluorescent group was postulated to change. In a non-limiting prior specific example, the dansyl derivative ACRYLODAN®(6-acryloly-2dimethylamenonaphthalene) was used to modify the mutated FABP and this probe was designated FAD508.
ADIFAB dose response to FFA and FFA aggregate formation was measured. […]

[3] = FA-ADIFAB Dissociation Constants, Kd, no added calcium, FIG. 6A, buffer A pH 7.4

C=CC1=C(C)/C(=C/c2[nH]c(Cc3[nH]c(/C=C4\NC(=O)C(C)=C4C=C)c(C)c3CCC(=O)O)c(CCC(=O)O)c2C)NC1=O [bilirubin]
change in ADIFAB fluorescence by the molecule itself (ADIFAB): none of these molecules, either themselves cause a change in ADIFAB fluorescence
displacement of oleic acid binding to ADIFAB (ADIFAB): nor do they displace oleic acid binding to ADIFAB

CCCCC/C=C\C\C=C/C=C/C=C/[C@@H](SC[C@H](NC(=O)CC[C@H](N)C(=O)O)C(=O)NCC(=O)O)[C@@H](O)CCCC(=O)O [leukotriene C4]
change in ADIFAB fluorescence by the molecule itself (ADIFAB): none of these molecules, either themselves cause a change in ADIFAB fluorescence
displacement of oleic acid binding to ADIFAB (ADIFAB): nor do they displace oleic acid binding to ADIFAB

CC/C=C\C/C=C\C/C=C\CCCCCCCC(=O)O [LINOLENATE, linolenate]
ADIFAB sensitivity to FFA levels (lowest detectable level) [1]: about 20 nM
Kd [1, 3]: 2.5 ± 0.1 µM
Kd relative to oleate (fold greater than oleate) [1]: ~8.9 fold

CCCCCCCCCCCCC/C=C/[C@@H](O)[C@@H](N)CO [sphingosine]
change in ADIFAB fluorescence by the molecule itself (ADIFAB): none of these molecules, either themselves cause a change in ADIFAB fluorescence
displacement of oleic acid binding to ADIFAB (ADIFAB): nor do they displace oleic acid binding to ADIFAB

CCCCC/C=C\C/C=C\C/C=C\C=C\[C@@H](O)CCCC(=O)O [5-HETE, (5S)-5-Hydroxy-6,8, 11,14-eicasatetaenoic acid]
change in ADIFAB fluorescence by the molecule itself (ADIFAB): none of these molecules, either themselves cause a change in ADIFAB fluorescence
displacement of oleic acid binding to ADIFAB (ADIFAB): nor do they displace oleic acid binding to ADIFAB

CCCCC[C@H](O)/C=C/[C@H]1C(=O)C[C@H](O)[C@@H]1C/C=C\CCCC(=O)O [prostaglandin D2]
change in ADIFAB fluorescence by the molecule itself (ADIFAB): none of these molecules, either themselves cause a change in ADIFAB fluorescence
displacement of oleic acid binding to ADIFAB (ADIFAB): nor do they displace oleic acid binding to ADIFAB

CCCCCCCCCCCC(=O)O [laurate]
Kd ([1]; laurate (12:0), binding detectable but considerably weaker, read-out: Kd (shorter chain FA, bound)): > 200 µM

lysolecithin
change in ADIFAB fluorescence by the molecule itself (ADIFAB): none of these molecules, either themselves cause a change in ADIFAB fluorescence
displacement of oleic acid binding to ADIFAB (ADIFAB): nor do they displace oleic acid binding to ADIFAB

CCCCC/C=C\C/C=C\C/C=C\C/C=C\CCCC(=O)O [ARACHIDONATE, arachidonate]
Kd [1, 3]: 1.63 ± 0.03 µM
Kd ([1]; Kd in the presence of calcium, 1 mM calcium): 1.67 µM
Kd relative to oleate (fold greater than oleate) [1]: ~5.8 fold

CCCCC/C=C\C/C=C\CCCCCCCC(=O)O [LINOLEATE, linoleate]
Kd [1, 3]: 0.97 ± 0.02 µM
Kd relative to oleate (fold greater than oleate) [1]: ~3.5 fold

B1: ADIFAB: Acrylodan derivatized recombinant native protein (I-FABP), labeled at Lys27 (conjugate, UniProt P02693 2-132, looked up)
Fatty acid-binding protein, …: AFDGTWKVDRNENYEKFMEKMGINVVKRKLGAHDNLKLTITQEGNKFTVKESSNFRNIDVVFELGVDFAYSLADGTELTGTWTMEGNKLVGKFKRVDNGKELIAVREISGNELIQTYTYEGVEAKRIFKKE
modifications: acrylodan label at Lys27
Kd of FA relative to the native protein (fold greater) ([2]; ADIFAB versus native I-FABP): about 10 fold
increase in the 505/432 emission ratio on addition of FFA ([2]; FIG. 6A, up to): ≤ 25 fold

B2: Lys27 on I-FABP with danzyl aziridine: Lys27 on I-FABP with danzyl aziridine has been derivatized (conjugate, UniProt P02693 2-132, looked up)
Fatty acid-binding protein, …: B1 Fatty acid-binding protein, …
modifications: dansyl aziridine label at Lys27
notes: Lys27 on I-FABP with danzyl aziridine has been derivatized
responsiveness of the probe to FA binding, in words [2]: exhibits an increase in 450 nm fluorescence upon FA binding

B3: IANBDE derivative: Cys27 mutant of I-FABP (Lys27 to Cys27) labeled with IANBDE (conjugate, UniProt P02693 2-132, looked up, variant K27C)
Fatty acid-binding protein, …: B1 Fatty acid-binding protein, … with K27C
modifications: IANBDE (NBD ester) label
responsiveness of the probe to FA binding, in words [2]: among the most sensitive
reduction in intensity at 550 nm ([2]; with 1 mM oleate, I-FABP Cys27 mutant): 60%

— patent publication US5470714A, “One-step free fatty acid determination method” (Lidak Pharmaceuticals, priority 1993, dated 1995)
